≈ marks a conversion by molar mass, not a printed value. Calls of active or inactive are those of the source. No cut-off for these calls is given here.
Experiments:
Staphylococcus aureus [1] = assay: Antibacterial activity against community-associated methicillin-resistant Staphylococcus aureus USA300 SF8300 assessed as inhibition of bacterial growth by measuring zone of inhibition at 30 ug incubated for 18 to 20 hrs by CLSI based disk diffusion analysis; type: functional; conditions: time 18-20 hrs, read-out: DIZ
Pseudomonas aeruginosa [2] = assay: Antibacterial activity against Pseudomonas aeruginosa assessed as inhibition of bacterial growth by measuring zone of inhibition at 30 ug incubated for 18 to 20 hrs by CLSI based disk diffusion analysis; type: functional; conditions: time 18-20 hrs, read-out: DIZ
Staphylococcus aureus [3] = assay: Antibacterial activity against methicillin-susceptible Staphylococcus aureus ATCC 25923 assessed as inhibition of bacterial growth by measuring zone of inhibition at 30 ug incubated for 18 to 20 hrs by CLSI based disk diffusion analysis; type: functional; conditions: time 18-20 hrs, read-out: DIZ
Pseudomonas aeruginosa [4] = assay: Bactericidal activity against Pseudomonas aeruginosa assessed as inhibition of bacterial growth incubated for 18 to 20 hrs by CLSI based microdilution susceptibility analysis; type: functional; conditions: time 18-20 hrs
Staphylococcus aureus [5] = assay: Antibacterial activity against community-associated methicillin-resistant Staphylococcus aureus USA300 SF8300 assessed as inhibition of bacterial growth incubated for 18 to 20 hrs by CLSI based microdilution susceptibility analysis; type: functional; conditions: time 18-20 hrs
Staphylococcus aureus [6] = assay: Inhibition of methicillin-susceptible Staphylococcus aureus ATCC 29213 bacterial cell adhesion to fibronectin at 0.1 mg/ml followed by compound addition on fibronectin precoated plate measured after 2 hrs by crystal violet dye based analysis; type: functional
Staphylococcus aureus [7] = assay: Antibacterial activity against methicillin-susceptible Staphylococcus aureus ATCC 29213 assessed as inhibition of bacterial growth incubated for 18 to 20 hrs by CLSI based microdilution susceptibility analysis; type: functional; conditions: time 18-20 hrs
Pseudomonas aeruginosa [8] = assay: Antibacterial activity against Pseudomonas aeruginosa assessed as inhibition of bacterial growth incubated for 18 to 20 hrs by CLSI based microdilution susceptibility analysis; type: functional; conditions: time 18-20 hrs
Staphylococcus aureus [9] = assay: Bactericidal activity against methicillin-susceptible Staphylococcus aureus ATCC 29213 assessed as inhibition of bacterial growth incubated for 18 to 20 hrs by CLSI based microdilution susceptibility analysis; type: functional; conditions: time 18-20 hrs
Staphylococcus aureus [10] = assay: Bactericidal activity against community-associated methicillin-resistant Staphylococcus aureus USA300 SF8300 assessed as inhibition of bacterial growth incubated for 18 to 20 hrs by CLSI based microdilution susceptibility analysis; type: functional; conditions: time 18-20 hrs
Albumin = Albumin (Homo sapiens, UniProt P02768); assay: Binding affinity to cysteine residue of human serum albumin assessed as conjugation of compound with protein at 1:1 compound to human serum albumin concentration incubated for 2 hr by LC-MS/MS analysis; type: cell-free
Albumin, sequence (P02768 whole entry): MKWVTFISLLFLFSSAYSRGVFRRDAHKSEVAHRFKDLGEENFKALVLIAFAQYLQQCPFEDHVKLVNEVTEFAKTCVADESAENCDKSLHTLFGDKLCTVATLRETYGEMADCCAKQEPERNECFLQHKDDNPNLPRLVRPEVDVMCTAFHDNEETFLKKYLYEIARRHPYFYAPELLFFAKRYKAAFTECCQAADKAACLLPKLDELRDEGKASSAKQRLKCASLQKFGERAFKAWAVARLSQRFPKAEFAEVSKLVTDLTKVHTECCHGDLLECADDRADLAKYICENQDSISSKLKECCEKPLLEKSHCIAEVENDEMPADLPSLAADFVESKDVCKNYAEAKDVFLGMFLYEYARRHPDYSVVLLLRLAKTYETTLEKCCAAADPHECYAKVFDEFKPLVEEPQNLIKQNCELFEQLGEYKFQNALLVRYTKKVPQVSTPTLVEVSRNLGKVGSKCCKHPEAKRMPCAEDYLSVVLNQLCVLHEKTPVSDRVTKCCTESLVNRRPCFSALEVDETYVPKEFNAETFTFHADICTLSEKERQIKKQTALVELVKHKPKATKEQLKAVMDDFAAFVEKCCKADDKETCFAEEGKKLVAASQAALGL

Sortase A = biological target: T1, Sortase A (Staphylococcus aureus, UniProt Q9S446); assay: Inhibition of Staphylococcus aureus sortase A using Abz/Dnp fluorescent peptide as a substrate measured after 30 mins by fluorescent based analysis
T1 sequence (Q9S446 whole entry): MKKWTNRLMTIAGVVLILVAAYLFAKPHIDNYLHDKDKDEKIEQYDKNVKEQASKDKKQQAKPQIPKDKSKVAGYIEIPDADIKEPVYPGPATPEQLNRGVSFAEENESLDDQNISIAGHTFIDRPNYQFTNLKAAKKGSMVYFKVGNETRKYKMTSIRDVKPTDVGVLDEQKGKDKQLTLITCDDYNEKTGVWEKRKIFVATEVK

SMILES | zone of inhibition at 30 µg/disc (Staphylococcus aureus [1]) [mm] | zone of inhibition at 30 µg/disc (Pseudomonas aeruginosa [2]) [mm] | zone of inhibition at 30 µg/disc (Staphylococcus aureus [3]) [mm] | MBC (Pseudomonas aeruginosa [4]) [mg/L] | MIC (Staphylococcus aureus [5]) [mg/L] | inhibition (Staphylococcus aureus [6]) | MIC (Staphylococcus aureus [7]) [mg/L] | MIC (Pseudomonas aeruginosa [8]) [mg/L] | MBC (Staphylococcus aureus [9]) [mg/L] | MBC (Staphylococcus aureus [10]) [mg/L] | Activity (Albumin) | IC50 (Sortase A) [µM]
Cc1ccc(S(=O)(=O)C/C=C\Oc2ccccc2)cc1 | 6 | 6 | 6 | – | – | – | – | – | – | – | – | –
COc1ccc(S(=O)(=O)/C=C/C#N)cc1 | 25.9 | 13.3 | 26.9 | > 120 | 3.75 (≈ 16.8 µM) | Active | 1.88 (≈ 8.4 µM) | > 120 | 30 (≈ 134 µM) | 30 (≈ 134 µM) | – | –
Cc1ccc(S(=O)(=O)/C=C/c2ccc(Cl)cc2)cc1 | 6 | 6 | 6 | – | – | – | – | – | – | – | – | –
COC(=O)/C(C)=C/S(=O)(=O)c1ccc(C)cc1 | 6 | 6 | 6 | – | – | – | – | – | – | – | – | –
COc1ccc(S(=O)(=O)/C=C\C#N)cc1 | 24.7 | 14.2 | 24.5 | 120 (≈ 538 µM) | 15 (≈ 67.2 µM) | Active | 3.75 (≈ 16.8 µM) | 120 (≈ 538 µM) | 60 (≈ 269 µM) | 60 (≈ 269 µM) | – | –
Cc1ccc(S(=O)(=O)/C=C/C#N)cc1 | 27.7 | 12.9 | 28 | > 120 | 7.5 (≈ 36.2 µM) | Active | 1.88 (≈ 9.05 µM) | 120 (≈ 579 µM) | 15 (≈ 72.4 µM) | 60 (≈ 289 µM) | Active | 129
N#C/C=C/S(=O)(=O)c1ccccc1 | 25.2 | 14.1 | 22.6 | 60 (≈ 311 µM) | 7.5 (≈ 38.8 µM) | Active | 1.88 (≈ 9.7 µM) | 60 (≈ 311 µM) | 30 (≈ 155 µM) | 60 (≈ 311 µM) | – | –
C/C(=C/C#N)S(=O)(=O)c1ccc(C)cc1 | 23.6 | 6 | 23.6 | – | 7.5 (≈ 33.9 µM) | – | 7.5 (≈ 33.9 µM) | – | 7.5 (≈ 33.9 µM) | 15 (≈ 67.8 µM) | – | –
Cc1ccc(S(=O)(=O)/C=C/C(=O)O)cc1 | 6 | 6 | 9.94 | – | – | – | > 120 | – | > 120 | – | – | –
C/C(C#N)=C\S(=O)(=O)c1ccc(C)cc1 | 11.3 | 6 | 6 | – | 30 (≈ 136 µM) | – | – | – | – | 120 (≈ 542 µM) | – | –
CCS(=O)(=O)c1ccc(C)cc1 | 6 | 6 | 6 | – | – | – | – | – | – | – | – | –
Cc1ccc(S(=O)(=O)/C=C/C(N)=O)cc1 | 6 | 6 | 22 | – | – | – | 60 (≈ 266 µM) | – | 60 (≈ 266 µM) | – | – | –
Cc1ccc(S(=O)(=O)/C=C/C(=O)OC(C)(C)C)cc1 | 16.7 | 6 | 14.9 | – | 30 (≈ 106 µM) | – | 7.5 (≈ 26.6 µM) | – | 120 (≈ 425 µM) | 60 (≈ 212 µM) | – | –
N#C/C=C/S(=O)(=O)c1ccc([N+](=O)[O-])cc1 | 6 | 13.1 | 21.1 | 120 (≈ 504 µM) | – | Active | 30 (≈ 126 µM) | 120 (≈ 504 µM) | 60 (≈ 252 µM) | – | – | –

Reference: ChEMBL document CHEMBL5143612, “Antibacterial activity evaluation of vinyl sulfones against global predominant methicillin-resistant Staphylococcus aureus USA300” (Bioorg Med Chem Lett, 2022)
